Measurements as given in patent publication US20190350964A1, “ANTI-CANCER COMPOUNDS AND USES THEREOF” (NATIONAL UNIVERSITY OF SINGAPORE, priority 2016, published 2019).

Columns and labels:
RPE-1/hTert = assay: MTT cytotoxicity test (GI50); assay type: cell-based; conditions: Homo sapiens, normal, retina, MTT 72 h
SNU620 = assay: MTT cytotoxicity test (GI50); assay type: cell-based; conditions: Homo sapiens; SNU620, cancer, gastric; MTT 72 h
[1] = system: HCT-15 human colon adenocarcinoma cells; assay: HCT-15 tumor xenograft in nude mice; assay type: in vivo, mouse
Text: BALB/c athymic female nude mice (nu/nu, 5-7 weeks) (InVivos) were kept under specific pathogen-free (SPF) conditions. The care and use of mice was approved by the Duke-NUS IACUC in accordance with protocol 2015/SHS/1030. HCT15 human colon cancer cells (5×10^6) or MDA-MB-231 human breast cancer cells (4×10^6 with Matrigel) were subcutaneously injected into the flanks of mice. When the mean tumor volume reached 100-300 mm^3 (Day 1), the mice were randomly divided into experimental groups of 6 mice by an algorithm that moves animals around to achieve the best case distribution to assure that each treatment group has similar mean tumor burden and standard deviation. No statistical method was used to predetermine sample size. […] Paclitaxel (Cayman Chemical) was dissolved in ethanol:Tween 80=1:3 (v/v) solution followed by the addition of a 5% glucose solution (final ratio, ethanol:Tween 80:5% glucose=5:15:80) and injected via the tail vain (IV). Tumor dimensions were measured using calipers, and tumor volume (mm^3) was calculated using the formula width^2×length/2 in a blinded fashion. On Day 12 (HCT15) or Day 16 (MDA-MB-231), mice were sacrificed. Tumors were collected, fixed overnight in 4% paraformaldehyde (PFA) and stored in 70% ethanol. For immunostaining, antigens were retrieved from formaldehyde-fixed, paraffin-embedded tumor tissue sections for 30 min by boiling in sodium citrate buffer (pH 6.0) using a microwave histoprocessor (Milestone). Endogenous peroxidase activity in tissue sections was depleted by treatment with 3% hydrogen peroxide (H2O2 in 1×TBS) for 20 min at room temperature. Tumor tissue sections were incubated overnight with anti-β-tubulin (Abcam; 1:100 in 3% BSA/TBS-Tween 20) at 4° C. followed by incubation with goat anti-rabbit FITC-conjugated secondary antibody (Invitrogen; 1:200 in 3% BSA/TBS) for 1 h at 25° C. After dehydration treatment, coverslips were mounted using DAPI mounting medium (Vector). Images were acquired in 3D-SIM mode using a super resolution microscope (Nikon), and the number of cells with either 2 or mitotic-spindles was quantified (n>50 cells per section, 6-7 sections per treatment). For detection of apoptosis using the TUNEL method, the ApopTag Plus Peroxidase In Situ Apoptosis Detection Kit (Millipore) was used for formaldehyde-fixed, paraffin-embedded tumor tissue sections treated with b5 (80 mg/kg, IP) or control vehicle for 12 days. Slide scans were acquired using a MetaSystems Metafer built on a Zeiss Axiolmager Z.2 upright microscope. The system is equipped with a CoolCubel camera and a Zeiss Plan-Neofluar 20×/0.5 Ph2 objective lens. Image acquisition was controlled with Metafer4 software, and stitching was performed with the VSlide software and further processed using the open source software FIJI. A custom macro was used to batch process the images in the following sequence: Gaussian filter, color deconvolution of hematoxylin and DAB, thresholding the hematoxylin image, watershed to separate touching nuclei, and then count the number of hematoxylin-stained nuclei. For the DAB image, a fixed threshold was used, watershed applied and the number of DAB stained nuclei counted. In all cases, no data or animals were excluded and results are expressed as mean and standard deviation of the mean.

[2] = system: MDA-MB-231 human breast tumor cells; assay: MDA-MB-231 tumor xenograft in nude mice; assay type: in vivo, mouse; conditions: a131 20 mg/kg, b5 40-80 mg/kg, PO or IP twice daily, 15 days
Text: BALB/c athymic female nude mice (nu/nu, 5-7 weeks) (InVivos) were kept under specific pathogen-free (SPF) conditions. The care and use of mice was approved by the Duke-NUS IACUC in accordance with protocol 2015/SHS/1030. HCT15 human colon cancer cells (5×10^6) or MDA-MB-231 human breast cancer cells (4×10^6 with Matrigel) were subcutaneously injected into the flanks of mice. When the mean tumor volume reached 100-300 mm^3 (Day 1), the mice were randomly divided into experimental groups of 6 mice by an algorithm that moves animals around to achieve the best case distribution to assure that each treatment group has similar mean tumor burden and standard deviation. No statistical method was used to predetermine sample size. […] Tumor dimensions were measured using calipers, and tumor volume (mm^3) was calculated using the formula width^2×length/2 in a blinded fashion. […] Images were acquired in 3D-SIM mode using a super resolution microscope (Nikon), and the number of cells with either 2 or mitotic-spindles was quantified (n>50 cells per section, 6-7 sections per treatment). […] For the DAB image, a fixed threshold was used, watershed applied and the number of DAB stained nuclei counted. In all cases, no data or animals were excluded and results are expressed as mean and standard deviation of the mean.

[3] = system: Ras-driven glioma initiating cells (GICs); assay: Brain slice explants (orthotopically implanted ex vivo model); set-up: species or system mouse; conditions: 20 μM, 4 days
Description: Fifty thousand GICs were orthotopically implanted into the forebrain of wild-type mice, and at 7 days post-implantation, brain slice explants were established as previously described (Sampetrean, O. et al., Neoplasia 13: 784-791 (2011)). […] Images were acquired on an FV10i Olympus confocal microscope (Olympus) and tumor area was quantified by Nikon NIS-element software. Experiments were performed in triplicate. At the end of the experiment (Day 4), slices were fixed overnight in 4% paraformaldehyde, embedded in paraffin and then sectioned at a thickness of 4 μm. Deparaffinized sections were stained with rabbit polyclonal antibody against cleaved caspase 3 (Cell Signaling). Immune complexes were detected using Histofine (Nichirei Biosciences) and ImmPACTDAB (Vector Laboratories). All animal experiments were performed in accordance with the animal care guidelines of Keio University.

PIK3IP1 = assay: qRT-PCR and immunoblot of PIK3IP1 in BJ cells; assay type: cell-based, human; conditions: 5 μM, 24 h
Description: Total RNA was isolated from cultured cells using the RNeasy mini kit (Qiagen). cDNA was synthesized from 1 μg of total RNA using the iScript cDNA synthesis kit (Bio-Rad). qRT-PCR analysis was performed using the iQ SYBR Green Super mix (Bio-Rad) using the following gene-specific primers:
human PI5P4Kα (5′-[…]-3′; SEQ ID NO: 11, 5′-[…]-3′; SEQ ID NO: 12), human PI5P4Kβ (5′-[…]-3′; SEQ ID NO: 13, 5′-[…]-3′; SEQ ID NO: 14), human PI5P4Kγ (5′-[…]-3′; SEQ ID NO: 15, 5′-[…]-3′; SEQ ID NO: 16) and human PIK3IP1 (5′-[…]-3′; SEQ ID NO: 17, 5′-[…]-3′; SEQ ID NO: 18). The TATA-binding protein (TBP) gene was used for normalization. All PCR reactions were performed in triplicate.
Total cell lysates were prepared with 1% triton lysis buffer [25 mM Tris HCl (pH 8.0), 150 mM NaCl, 1% triton-X100, 1 mM dithiothreitol (DTT), protease inhibitor mix (Complete Mini, Roche) and phosphatase inhibitor (PhosphoStop, Roche)] and subjected to SDS-PAGE. […] Where indicated, intensities of protein bands were quantified by densitometry (Odyssey V3.0), normalized to their loading controls and then calculated as fold expression change relative to DMSO control.

N#C/C(=C\c1cccc2cnccc12)c1c[nH]c2ccccc12 [a131, (Z)-2-(1H-indol-3-yl)-3-(5-isoquinolyl)prop-2-enenitrile]
GI50 (RPE-1/hTert): 5.2 µM | GI50 (SNU620): 1 µM | misaligned chromosomes / multipolar spindles in tumor sections ([1]; HCT-15 tumor sections, Day 12): caused massively misaligned chromosomes with multipolar spindles in tumor sections | antitumor activity (tumor volume) ([1]; a131 20 mg/kg, b5 40-80 mg/kg, PO or IP twice daily, 12 days, paclitaxel IV): marked antitumor efficacies | body weight loss ([1]; xenograft-bearing mice, PO or IP twice daily): without any body weight loss | antitumor activity (tumor volume) [2]: marked antitumor efficacies | apoptosis (cleaved caspase-3) in tumor versus surrounding normal tissue [3]: induced apoptosis only in tumors, but not surrounding normal tissues | tumor growth of GICs in brain explants (Day 4/Day 0) [3]: significantly suppressed growth | PIK3IP1 mRNA and protein levels (PIK3IP1; normal BJ cells): up-regulation of PIK3IP1 at both the mRNA and protein levels | PIK3IP1 mRNA expression (PIK3IP1; transformed BJ cells): unresponsive
